Test results as given in patent US20200404919A1, “USE OF HETEROARYL-TRIAZOLE AND HETEROARYL-TETRAZOLE COMPOUNDS AS PESTICIDES IN PLANT PROTECTION” (Bayer Aktiengesellschaft, priority 2018, published 2020).

Tests used:
Assay type in all cases: in vivo
Phaedon cochleariae = Phaedon cochleariae - spray test; settings: in Brassica rapa, foliar, 168 h, read-out: mortality in %
Summary of the method: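 Mortality read 7 days after infestation; 100% means every larva dead, 0% none. Larvae placed on dried Chinese cabbage leaf disks previously sprayed with compound preparation diluted in emulsifier-containing water (1000 ppm).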

Spodoptera frugiperda = Spodoptera frugiperda - spray test; settings: in Zea mays, 168 h, read-out: mortality in %
Summary of the method: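 Leaf-spray assay on maize: sections treated with active ingredient at the desired concentration in emulsifier-containing water (1000 ppm) and, once dry, exposed to armyworm caterpillars. Kill rate is expressed in percent after seven days.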

Myzus persicae [1] = experiment: Myzus persicae - oral test; settings: 120 h, read-out: mortality in %
Summary of the method: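 Scoring at day 5 gives percent mortality (0% none, 100% all killed) of a mixed aphid population that sucked compound preparation in sugar-supplemented IPL41 medium through a parafilm seal.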

Aphis gossypii = Aphis gossypii - oral test; settings: 120 h, read-out: mortality in %
Summary of the method: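 Oral exposure: compound solution, prepared from acetone concentrate diluted in water, combined with sugar-supplemented IPL41 medium and sealed under parafilm for aphid feeding. Percent kill recorded at day 5.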

Diabrotica balteata = Diabrotica balteata - spray test; settings: 168 h, 160 μg/well, germinated wheat seeds, larvae, after 7 days, read-out: efficacy in %
Summary of the method: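 Efficacy (%) read 7 days after infesting treated seedlings with 10-20 banded cucumber beetle larvae, 100% meaning growth as in uninfected untreated control and 0% no growth. Test solutions in water containing 1000 ppm emulsifier were sprayed onto wheat seeds germinated for 1 day on agar.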

Tetranychus urticae = Tetranychus urticae - spray test OP-resistant; settings: foliar, 144 h, French bean leaf disks, all instars, after 6 days
Description: Tetranychus urticae—Spray Test OP-Resistant
(§1) To produce a suitable preparation of active compound, 1 part by weight of active compound is mixed with the stated amount of solvents and is diluted with water, containing an emulsifier concentration of 1000 ppm, to the desired concentration. Further test concentrations are prepared by dilution with emulsifier containing water.
French bean (Phaseolus vulgaris) leaf disks infected with all instars of the two spotted spidermite (Tetranychus urticae), are sprayed with a preparation of the active ingredient of the desired concentration.
After 6 days mortality in % is determined. 100% means all spider mites have been killed and 0% means none of the spider mites have been killed.

Nezara viridula = Nezara viridula - spray test 1; settings: in Hordeum vulgare, 96 h, read-out: mortality in %
Summary of the method: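 Percent kill of Nezara viridula larvae was read 4 days after spraying infested barley (Hordeum vulgare). The spray was the compound concentrate diluted in 1000 ppm emulsifier-containing water.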

Nilaparvata lugens = Nilaparvata lugens - spray test 1; settings: in Oryza sativa, 96 h, read-out: mortality in %, 500 g/ha, rice plants, after 4 days
Summary of the method: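 Mortality (%) was scored 4 days after infesting treated plants with brown planthopper, where 100% means all insects were killed. Compound was applied by spraying rice (Oryza sativa) at the desired concentration, diluted in water carrying 1000 ppm emulsifier.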

Culex quinquefasciatus = experiment: Culex test (CULXFAS surface treatment & contact assay); settings: 30 minutes exposure, 24 hours after contact, read-out: efficacy (mortality in percent); for mortality at 4 mg/m2: surface concentration 4 mg/m^2, glazed tile; for mortality at 20 mg/m2: surface concentration 20 mg/m^2, glazed tile
Description: Culex Test (CULXFAS Surface Treatment & Contact Assay)
(§2) Solvent: Acetone+2000 ppm rapeseed oil methyl ester (RME)
(§3) In order to produce a sufficient, active ingredient containing solution it is necessary to solve the test-compound in an acetone/RME solvent mixture. This solution is pipetted onto a glazed tile and after evaporation of the acetone, adult mosquitoes of the species Culex quinquefasciatus (Brown house mosquito) are placed onto the dried surface. The exposure time is 30 minutes.
(§4) Mortality in percent (%) is determined 24 hours after contact to the treated surface. 100% mortality means that all test-insects are dead, whereas 0% means that not a single insect died.

[2] = test system: Aedes aegypti strain MONHEIM; experiment: Aedes test (AEDSAE surface treatment & contact assay); settings: 30 minutes exposure, 24 hours after contact, read-out: efficacy (mortality in percent); for mortality at 4 mg/m2: surface concentration 4 mg/m^2, glazed tile; for mortality at 20 mg/m2: surface concentration 20 mg/m^2, glazed tile
Description: Aedes Test (AEDSAE Surface Treatment & Contact Assay)
Solvent: Aceton+2000 ppm rapeseed oil methyl ester (RME)
as §3, with “Aedes aegypti strain MONHEIM” for “Culex quinquefasciatus (Brown house mosquito)”
as §4

[3] = test system: Musca domestica strain WHO-N; experiment: Musca domestica test (MUSCDO surface treatment & contact assay); settings: 30 minutes exposure, 24 hours after contact, read-out: efficacy (mortality in percent); for mortality at 4 mg/m2: surface concentration 4 mg/m^2, glazed tile; for mortality at 20 mg/m2: surface concentration 20 mg/m^2, glazed tile
Description: Musca domestica Test (MUSCDO Surface Treatment & Contact Assay)
(§5) Solvent: Aceton+2000 ppm Rapeseed oil methyl ester (RME)
as §3, with “flies” for “mosquitoes”, “Musca domestica strain WHO-N” for “Culex quinquefasciatus (Brown house mosquito)”
as §4

[4] = test system: Blattella germanica strain PAULINIA; experiment: Blattella germanica test (BLTTGE surface treatment & contact assay); settings: 30 minutes exposure, 24 hours after contact, read-out: efficacy (mortality in percent); for mortality at 4 mg/m2: surface concentration 4 mg/m^2, glazed tile; for mortality at 20 mg/m2: surface concentration 20 mg/m^2, glazed tile
Description: Blattella germanica Test (BLTTGE Surface Treatment & Contact Assay)
as §5
as §3, with “animals” for “mosquitoes”, “Blattella germanica strain PAULINIA” for “Culex quinquefasciatus (Brown house mosquito)”
as §4

Myzus persicae [5] = experiment: Myzus persicae - spray test; settings: foliar, 120 h, Chinese cabbage leaf disks, all instars, after 5 days
Description: Myzus persicae—Spray Test
as §1
Chinese cabbage (Brassica pekinensis) leaf disks infected with all instars of the green peach aphid (Myzus persicae), are sprayed with a preparation of the active ingredient of the desired concentration.
After 5 days mortality in % is determined. 100% means all aphids have been killed and 0% means none of the aphids have been killed.

Meloidogyne incognita = Meloidogyne incognita - test; settings: 336 h, salad seedlings in sand, after 14 days, read-out: nematicidal activity (percentage of gall formation)
Description: Meloidogyne incognita—Test
Solvent: 125.0 parts by weight of acetone
To produce a suitable preparation of active compound, 1 part by weight of active compound is mixed with the stated amount of solvent, and the concentrate is diluted with water to the desired concentration.
Vessels are filled with sand, a solution of the active ingredient, a suspension containing eggs and larvae of the southern root-knot nematode (Meloidogyne incognita) and salad seeds. The salad seeds germinate and the seedlings grow. Galls develop in the roots.
After 14 days the nematicidal activity is determined on the basis of the percentage of gall formation. 100% means no galls were found and 0% means the number of galls found on the roots of the treated plants was equal to that in untreated control plants.

[6] = test system: Anopheles funestus strain FUMOZ-R; experiment: Anopheles test (ANPHFU surface treatment & contact assay); settings: 30 minutes exposure, 24 hours after contact, read-out: efficacy (mortality in percent)
Text: Anopheles Test (ANPHFU Surface Treatment & Contact Assay)
as §2
as §3, with “Anopheles funestus strain FUMOZ-R (Hunt et al., Med Vet Entomol. 2005 Sep. 19(3):271-5)” for “Culex quinquefasciatus (Brown house mosquito)”
as §4

[7] = surface concentration 100 mg/m^2, glazed tile

Compound	mortality at 500 g/ha (Phaedon cochleariae) [%]	mortality at 500 g/ha (Spodoptera frugiperda) [%]	mortality at 20 ppm (Myzus persicae [1]) [%]	mortality at 100 ppm (Aphis gossypii) [%]	pest or weed control at 160 µg/disc, 160 µg/well (Diabrotica balteata) [%]	mortality at 500 g/ha (Tetranychus urticae) [%]	mortality at 500 g/ha (Nezara viridula) [%]	mortality at 500 g/ha (Nilaparvata lugens) [%]	mortality at 500 g/ha (Myzus persicae [5]) [%]	also measured
CC(c1ncnn1-c1ncc(F)cn1)N(CC1CC1)C(=O)c1cc(Cl)cc(C(F)(F)F)c1 (centres unmarked) [Compound I-81, 3-chloro-N-(cyclopropylmethyl)-N-[1-[2-(5-fluoropyrimidin-2-yl)-1,2,4-triazol-3-yl]ethyl]-5-(trifluoromethyl)benzamide]	100	100	100	100	100	80	100	100		mortality at 4 mg/m2 (Culex quinquefasciatus): 80 to 100%; mortality at 20 mg/m2 (Culex quinquefasciatus): 80 to 100%; mortality at 4 mg/m2 [2]: 80 to 100%; mortality at 20 mg/m2 [2]: 80 to 100%; mortality at 4 mg/m2 [3]: 80 to 100%; mortality at 20 mg/m2 [3]: 80 to 100%; mortality at 4 mg/m2 [4]: 80 to 100%; mortality at 20 mg/m2 [4]: 80 to 100%
CC(NC(=O)c1cc(Cl)cc(Cl)c1)c1ncnn1-c1ncccn1 (centres unmarked) [Compound I-124]		100					100	90	90	
CC(c1ncnn1-c1ncccn1)N(CC1CC1)C(=O)c1cc(Cl)cc(OC(F)(F)F)c1 (centres unmarked) [Compound I-37, 3-chloro-N-(cyclopropylmethyl)-N-[1-(2-pyrimidin-2-yl-1,2,4-triazol-3-yl)ethyl]-5-(trifluoromethoxy)benzamide]	100	100	100	100	100	90	100	100		mortality at 4 mg/m2 (Culex quinquefasciatus): 80 to 100%; mortality at 20 mg/m2 (Culex quinquefasciatus): 80 to 100%; mortality at 4 mg/m2 [2]: 80 to 100%; mortality at 20 mg/m2 [2]: 80 to 100%; mortality at 4 mg/m2 [3]: 80 to 100%; mortality at 20 mg/m2 [3]: 80 to 100%; mortality at 4 mg/m2 [4]: 80 to 100%; mortality at 20 mg/m2 [4]: 80 to 100%
C[C@H](NC(=O)c1cncc(Br)c1)c1ncnn1-c1ncccn1 [Compound I-134]					100		100	100	90	
CC(NC(=O)c1cc(Cl)cc(Br)c1)c1ncnn1-c1ncccn1 (centres unmarked) [Compound I-125, 3-bromo-5-chloro-N-[1-(2-pyrimidin-2-yl-1,2,4-triazol-3-yl)ethyl]benzamide]		100			100		100		90	
CC(NC(=O)c1cc(Cl)cc(I)c1)c1ncnn1-c1ncccn1 (centres unmarked) [Compound I-126, 3-chloro-5-iodo-N-[1-(2-pyrimidin-2-yl-1,2,4-triazol-3-yl)ethyl]benzamide]		100			100		100		90	
CC(c1ncnn1-c1nccc(C(F)(F)F)n1)N(CC1CC1)C(=O)c1cc(Cl)cc(C(F)(F)F)c1 (centres unmarked) [Compound I-82]	100	100	100	100	100	80	100	100		pest or weed control at 20 ppm (Meloidogyne incognita): 100%
C[C@@H](c1ncnn1-c1ncccn1)N(CC(F)F)C(=O)c1cc(Cl)cc(C(F)(F)F)c1 [Compound I-127, 3-chloro-N-(2,2-difluoroethyl)-N-[(1S)-1-(2-pyrimidin-2-yl-1,2,4-triazol-3-yl)ethyl]-5-(trifluoromethyl)benzamide]		100			100		100		100	
CC(c1ncnn1-c1ncccn1)N(CC(F)F)C(=O)c1cccc(C(F)(F)F)c1 (centres unmarked) [Compound I-123]		100				100	100	100	90	
C[C@H](NC(=O)c1cc(Cl)cc(C(F)(F)F)c1)c1ncnn1-c1ncccn1 [Compound I-113, 3-chloro-N-[(1S)-1-(2-pyrimidin-2-yl-1,2,4-triazol-3-yl)ethyl]-5-(trifluoromethyl)benzamide]	100	100	100	100	100		100	100		mortality at 4 mg/m2 (Culex quinquefasciatus): 80 to 100%; mortality at 20 mg/m2 (Culex quinquefasciatus): 80 to 100%; mortality at 100 mg/m2 (Culex quinquefasciatus; [7]): 80 to 100%; mortality at 4 mg/m2 ([6]; surface concentration 4 mg/m^2, glazed tile): 80 to 100%; mortality at 20 mg/m2 ([6]; surface concentration 20 mg/m^2, glazed tile): 80 to 100%; mortality at 100 mg/m2 [6, 7]: 80 to 100%; mortality at 4 mg/m2 [2]: 80 to 100%; mortality at 20 mg/m2 [2]: 80 to 100%; mortality at 100 mg/m2 [2, 7]: 80 to 100%; mortality at 4 mg/m2 [3]: 80 to 100%; mortality at 20 mg/m2 [3]: 80 to 100%
CC(c1ncnn1-c1ncccn1)N(CC#N)C(=O)c1cc(Cl)cc(C(F)(F)F)c1 (centres unmarked) [Compound I-96]		100				90	100	100	90	
